The text below walks through data of US8263606B2 (Xenon Pharmaceuticals Inc., priority 2008, dated 2012).

One data set relates to sodium channel. The data set can be described thus: Guanidine influx assay (14C-guanidine radiotracer flux, in vitro). Type of data set: cell-based, human or rat. Particulars: guanidine influx assay using a known cell line that expresses a sodium channel. An outline of the steps:
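Cells stably expressing human or rat sodium channels (~100,000/well, 20–24 h) were exposed in low-sodium choline buffer to test agent plus aconitine activator and 14C-guanidine at ambient temperature. Intracellular 14C-guanidine was counted by scintillation; IC50 fitted by 4-parameter logistic over half-dilutions around 1 μM.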

A further data set has as its target CYP3A4 (Homo sapiens, UniProt P08684). Description: Cytochrome P450 (CYP450) Inhibition Assay, CYP3A4 (Vivid fluorescence, BOMCC substrate). The conditions noted are these: human, P450 Baculosomes (recombinant CYP3A4), probe BOMCC (Vivid substrate).

One may read the melting point as the temperature, or range, at which the solid turns liquid. For orientation: IC50 means the concentration at which inhibition is half-maximal. As a reminder, the inhibition is the share of the control response that was lost under treatment.

Structures are written as SMILES. Counter-ions that a name gives are not always drawn.

Sequence of CYP3A4 (P08684 whole entry): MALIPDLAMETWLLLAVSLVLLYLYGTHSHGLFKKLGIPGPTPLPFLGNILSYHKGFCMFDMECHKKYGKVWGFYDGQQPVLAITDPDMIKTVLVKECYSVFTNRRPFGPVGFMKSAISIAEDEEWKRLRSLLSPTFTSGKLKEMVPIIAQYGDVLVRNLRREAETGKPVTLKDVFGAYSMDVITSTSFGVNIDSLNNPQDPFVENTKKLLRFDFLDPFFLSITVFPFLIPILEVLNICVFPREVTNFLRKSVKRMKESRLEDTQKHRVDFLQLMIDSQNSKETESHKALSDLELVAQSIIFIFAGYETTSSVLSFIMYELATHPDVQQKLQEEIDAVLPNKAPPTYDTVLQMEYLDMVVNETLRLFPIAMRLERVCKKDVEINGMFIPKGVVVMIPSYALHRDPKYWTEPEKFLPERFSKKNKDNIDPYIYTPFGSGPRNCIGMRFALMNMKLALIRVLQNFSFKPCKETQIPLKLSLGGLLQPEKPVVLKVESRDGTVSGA

Regarding `CC(C)N1CCC(CN2C(=O)C3(COc4cc5c(cc43)CCO5)c3ccccc32)CC1.Cl` (centres unmarked), the melting point was 167 °C (dec.).
As for `CCN1CCC(CN2C(=O)C3(COc4cc5c(cc43)CCO5)c3ccccc32)CC1.Cl` (centres unmarked), the melting point was 135 °C (dec.).
Turning to `CN1CCN(CN2C(=O)C3(COc4cc5c(cc43)OCO5)c3ccccc32)CC1` (centres unmarked) (as salt: chloride) [Example 11.63, 1′-[(4-methylpiperazin-1-yl)methyl]spiro[furo[2,3-f][1,3]benzodioxole-7,3′-indol]-2′(1′H)-one hydrogen chloride], the melting point is > 175 °C (dec.).
Regarding `COc1cc2c(cc1C)[C@@]1(CO2)C(=O)N(CN2CCN(C)CC2)c2ccccc21` (as salt: chloride) [Example 11.64, (3S)-6-methoxy-5-methyl-1′-[(4-methylpiperazin-1-yl)methyl]spiro[1-benzofuran-3,3′-indol]-2′(1′H)-one hydrogen chloride], the melting point is > 200 °C (dec.).
For `COc1cc2c(cc1C)[C@]1(CO2)C(=O)N(CN2CCN(C)CC2)c2ccccc21` (as salt: chloride) [Example 11.65, (3R)-6-methoxy-5-methyl-1′-[(4-methylpiperazin-1-yl)methyl]spiro[1-benzofuran-3,3′-indol]-2′(1′H)-one hydrogen chloride], the melting point is > 200 °C (dec.).
As to `CN1CCN(CN2C(=O)C3(COc4cc5c(cc43)CCO5)c3ccccc32)CC1` (centres unmarked) (as salt: hydrochloride), the melting point was 181 °C (dec.).
Still for that read-out and setting: as for `CN1CCC(CN2C(=O)C3(COc4cc(F)c(F)cc43)c3ccccc32)CC1` (centres unmarked) (as salt: hydrochloride) [Example 11.112, 5,6-difluoro-1′-[(1-methylpiperidin-4-yl)methyl]spiro[1-benzofuran-3,3′-indol]-2′(1′H)-one hydrochloride], the figure is 162 to 164 °C.
`Cc1noc2cc3c(cc12)C1(CO3)C(=O)N(Cc2ccc(-c3cc(N)n[nH]3)cc2)c2ccccc21` (centres unmarked) (as salt: hydrochloride) [Example 29.1, 1′-[4-(3-amino-1H-pyrazol-5-yl)benzyl]-3-methylspiro[furo[3,2-f][1,2]benzisoxazole-5,3′-indol]-2′(1′H)-one hydrochloride] registered a melting point of 191 to 195 °C.
For the compound `Nc1cc(-c2ccc(CN3C(=O)C4(COc5cc6c(cc54)OCCO6)c4ccccc43)cc2)[nH]n1` (centres unmarked) (as salt: hydrochloride) [Example 29.2, 1′-[4-(3-amino-1H-pyrazol-5-yl)benzyl]-2,3-dihydrospiro[furo[2,3-g][1,4]benzodioxine-8,3′-indol]-2′(1′H)-one hydrochloride], the melting point was in the range of 198 to 201 °C.
`O=C1N(Cc2ccc(N[C@@H]3CCNC3)cc2)c2ccccc2C12COc1cc(F)c(F)cc12` (stereo partly drawn) (as salt: hydrochloride) [Example 33.2, 5,6-difluoro-1′-{4-[(3R)-pyrrolidin-3-ylamino]benzyl}spiro[1-benzofuran-3,3′-indol]-2′(1′H)-one hydrochloride]: the melting point lay in the range of 153 to 162 °C.
The same measure, in the same setting: as for `O=C1N(C(c2ccccc2)c2ccccc2)c2ccc(F)cc2C12COc1cc3c(cc12)CCO3` (centres unmarked) [Example 2.4, 1′-(diphenylmethyl)-5′-fluoro-5,6-dihydrospiro[benzo[1,2-b:5,4-b′]difuran-3,3′-indol]-2′(1′H)-one], the figure is 228 to 229 °C; as for `O=C1N(C(c2ccccc2)c2ccccc2)c2cc(F)ccc2C12COc1cc3c(cc12)CCO3` (centres unmarked) [Example 2.5, 1′-(diphenylmethyl)-6′-fluoro-5,6-dihydrospiro[benzo[1,2-b:5,4-b′]difuran-3,3′-indol]-2′(1′H)-one], 194 to 196 °C.
Take `CN(C)C(=O)c1ccc(CN2C(=O)C3(COc4cc5c(cc43)CCO5)c3ccccc32)o1` (centres unmarked) [Example 13.1, N,N-dimethyl-5-[(2′-oxo-5,6-dihydrospiro[benzo[1,2-b:5,4-b′]difuran-3,3′-indol]-1′(2′H)-yl)methyl]furan-2-carboxamide]: the IC50 in the data set on sodium channel is 1 to 100 nM. Besides, at CYP3A4, the inhibition at 10 µM is greater than 50%.
The matching figures for `CNC(=O)c1ccc(CN2C(=O)C3(COc4cc5c(cc43)CCO5)c3ccccc32)o1` (centres unmarked) [Example 13.2, N-methyl-5-[(2′-oxo-5,6-dihydrospiro[benzo[1,2-b:5,4-b′]difuran-3,3′-indol]-1′(2′H)-yl)methyl]furan-2-carboxamide]: 100 to 1000 nM and greater than 50%.
As for `NC(=O)c1coc(CN2C(=O)C3(COc4cc5c(cc43)CCO5)c3ccccc32)n1` (centres unmarked) [Example 13.3, 2-[(2′-oxo-5,6-dihydrospiro[benzo[1,2-b:5,4-b′]difuran-3,3′-indol]-1′(2′H)-yl)methyl]-1,3-oxazole-4-carboxamide], the IC50 with sodium channel lay within 100 to 1000 nM. Further, the inhibition at 10 µM at CYP3A4 was less than 50%.
As to `CN(C)C(=O)c1coc(CN2C(=O)C3(COc4cc5c(cc43)CCO5)c3ccccc32)n1` (centres unmarked) [Example 13.4, N,N-dimethyl-2-[(2′-oxo-5,6-dihydrospiro[benzo[1,2-b:5,4-b′]difuran-3,3′-indol]-1′(2′H)-yl)methyl]-1,3-oxazole-4-carboxamide], the IC50 in the data set on sodium channel was 100 to 1000 nM. The inhibition at 10 µM on CYP3A4 was less than 50%.
`O=C(NC1CC1)c1coc(CN2C(=O)C3(COc4cc5c(cc43)OCO5)c3ccccc32)n1` (centres unmarked) [Example 13.5, N-cyclopropyl-2-[(2′-oxospiro[furo[2,3-f][1,3]benzodioxole-7,3′-indol]-1′(2′H)-yl)methyl]-1,3-oxazole-4-carboxamide]: the IC50 with sodium channel was in the range of 1 to 100 nM. Also, the inhibition at 10 µM at CYP3A4 was greater than 50%.
Regarding `CC(C)NC(=O)c1coc(CN2C(=O)C3(COc4cc5c(cc43)OCO5)c3ccccc32)n1` (centres unmarked) [Example 13.6, N-(1-methylethyl)-2-[(2′-oxospiro[furo[2,3-f][1,3]benzodioxole-7,3′-indol]-1′(2′H)-yl)methyl]-1,3-oxazole-4-carboxamide], the IC50 in the data set with sodium channel lay within 1 to 100 nM. Also, the inhibition at 10 µM at CYP3A4 is greater than 50%.
In the same order, the values of `O=C1N(C[C@H]2CCCO2)c2cccc(/C=C/c3ccc(F)cc3)c2C12COc1cc3c(cc12)CCO3` (stereo partly drawn) [Example 16.1, 4′-[(E)-2-(4-fluorophenyl)ethenyl]-1′-[(2R)-tetrahydrofuran-2-ylmethyl]-5,6-dihydrospiro[benzo[1,2-b:5,4-b′]difuran-3,3′-indol]-2′(1′H)-one] are 100 to 1000 nM and greater than 50%.
For the compound `O=C1N(C[C@H]2CCCO2)c2cccc(-c3cccc4c3sc3ccccc34)c2C12COc1cc3c(cc12)CCO3` (stereo partly drawn) [Example 16.2, 4′-dibenzo[b,d]thiophen-4-yl-1′-[(2R)-tetrahydrofuran-2-ylmethyl]-5,6-dihydrospiro[benzo[1,2-b:5,4-b′]difuran-3,3′-indol]-2′(1′H)-one], in the data set on sodium channel, the 50% inhibitory concentration (IC50) lay within 100 to 1000 nM. For the same compound, the inhibition at 10 µM on CYP3A4 was greater than 50%.
The matching figures for `O=C1N(C[C@H]2CCCO2)c2cccc(-c3csc4ccccc34)c2C12COc1cc3c(cc12)CCO3` (stereo partly drawn) [Example 16.3, 4′-(1-benzothiophen-3-yl)-1′-[(2R)-tetrahydrofuran-2-ylmethyl]-5,6-dihydrospiro[benzo[1,2-b:5,4-b′]difuran-3,3′-indol]-2′(1′H)-one]: 1000 to 10000 nM and greater than 50%.
In the case of `Cn1ccc2cc(-c3cccc4c3C3(COc5cc6c(cc53)CCO6)C(=O)N4C[C@H]3CCCO3)ccc21` (stereo partly drawn) [Example 16.4, 4′-(1-methyl-1H-indol-5-yl)-1′-[(2R)-tetrahydrofuran-2-ylmethyl]-5,6-dihydrospiro[benzo[1,2-b:5,4-b′]difuran-3,3′-indol]-2′(1′H)-one], the IC50 in the data set with sodium channel lay in the range of 100 to 1000 nM. Besides, the inhibition at 10 µM on CYP3A4 was greater than 50%.
`O=C1N(C[C@H]2CCCO2)c2cccc(-c3cc(C(F)(F)F)cc(C(F)(F)F)c3)c2C12COc1cc3c(cc12)CCO3` (stereo partly drawn) [Example 16.5, 4′-[3,5-bis(trifluoromethyl)phenyl]-1′-[(2R)-tetrahydrofuran-2-ylmethyl]-5,6-dihydrospiro[benzo[1,2-b:5,4-b′]difuran-3,3′-indol]-2′(1′H)-one]: the IC50 in the data set with sodium channel was 100 to 1000 nM. The inhibition at 10 µM at CYP3A4 is greater than 50%.
For the compound `CCCCOc1ccc(-c2cccc3c2C2(COc4cc5c(cc42)CCO5)C(=O)N3C[C@H]2CCCO2)cc1` (stereo partly drawn) [Example 16.8, 4′-(4-butoxyphenyl)-1′-[(2R)-tetrahydrofuran-2-ylmethyl]-5,6-dihydrospiro[benzo[1,2-b:5,4-b′]difuran-3,3′-indol]-2′(1′H)-one], the IC50 in the data set with sodium channel lay within 100 to 1000 nM. In addition, the inhibition at 10 µM on CYP3A4 was less than 50%.
For `Cc1noc2cc3c(cc12)C1(CO3)C(=O)N(Cc2ccc(-c3cc(N)n[nH]3)cc2)c2ccccc21` (centres unmarked) [Example 29.1, 1′-[4-(3-amino-1H-pyrazol-5-yl)benzyl]-3-methylspiro[furo[3,2-f][1,2]benzisoxazole-5,3′-indol]-2′(1′H)-one hydrochloride], in the data set on sodium channel, the IC50 lay in the range of 100 to 1000 nM. Also, the inhibition at 10 µM on CYP3A4 was greater than 50%.
Turning to `Nc1cc(-c2ccc(CN3C(=O)C4(COc5cc6c(cc54)OCCO6)c4ccccc43)cc2)[nH]n1` (centres unmarked) [Example 29.2, 1′-[4-(3-amino-1H-pyrazol-5-yl)benzyl]-2,3-dihydrospiro[furo[2,3-g][1,4]benzodioxine-8,3′-indol]-2′(1′H)-one hydrochloride], in the data set with sodium channel, the 50% inhibitory concentration (IC50) lay within 100 to 1000 nM. Besides, the inhibition at 10 µM on CYP3A4 is greater than 50%.
With `O=C1N(Cc2ccc(N[C@@H]3CCNC3)cc2)c2ccccc2C12COc1cc(F)c(F)cc12` (stereo partly drawn) [Example 33.2, 5,6-difluoro-1′-{4-[(3R)-pyrrolidin-3-ylamino]benzyl}spiro[1-benzofuran-3,3′-indol]-2′(1′H)-one hydrochloride], in the data set on sodium channel, the IC50 was 1000 to 10000 nM. On CYP3A4, the inhibition at 10 µM is greater than 50%.
As to `NC(=O)c1cccc(CN2C(=O)C3(COc4cc5c(cc43)OCCO5)c3ccccc32)n1` (centres unmarked) [Example 42, 6-[(2′-oxo-2,3-dihydrospiro[furo[2,3-g][1,4]benzodioxine-8,3′-indol]-1′(2′H)-yl)methyl]pyridine-2-carboxamide], the IC50 with sodium channel was 1 to 100 nM. For the same compound, the inhibition at 10 µM at CYP3A4 is greater than 50%.
